Source: patent US20050222269A1, “Use of deprenyl compounds to treat viral infections and reduce tissue damage associated therewith” (priority 1998, published 2005)

How the values were obtained:
[1] = Stability of deprenyl as a function of pH of the medium; assay type: physicochemical; conditions: pH about 3-5 versus pH about 7
Text: The stability of deprenyl can be affected by the pH of the medium in which the deprenyl is formulated. […] Therefore, when formulating a deprenyl compound in a pharmaceutical composition, it is preferred that the deprenyl compound be maintained at a suitable pH. In preferred embodiments, a pharmaceutical composition of the invention has a pH in the range of about 3 to about 5, more preferably about 3 to about 4. Furthermore, ethyl alcohol is a preferred solvent for improving stability of deprenyl. Thus, in certain embodiments, alcoholic or aqueous alcoholic media are preferred for the pharmaceutical compositions of the invention.

[2] = tested on: Hela T4/env cells; experiment: CTL-mediated killing (51Cr release) of Hela T4/env cells expressing SIV env; assay type: cell-based; conditions: for Effect on CTL-mediated cell killing / lysis (in words): Hela T4/env cells; for Percent Specific Lysis: Hela T4/env target cells, compound 1.0 nM added at beginning of 5 hour assay, 51Cr release
[3] = tested on: huBLCL/env cells; experiment: CTL-mediated killing (51Cr release) of huBLCL/env cells expressing SIV env; assay type: cell-based, human; conditions: for Percent Specific Lysis: hu BLCL/env target cells, compound 1.0 nM added at beginning of 5 hour assay, 51Cr release
[4] = tested on: rh BLCL/env cells; experiment: CTL-mediated killing (51Cr release) of rh BLCL/env cells expressing SIV env; assay type: cell-based, rhesus monkey; conditions: for Effect on CTL-mediated cell killing / lysis (in words): rh BLCL/env cells; for Percent Specific Lysis: rh BLCL/env target cells, compound 1.0 nM added at beginning of 5 hour assay, 51Cr release
[5] = tested on: ClR/env cells; experiment: CTL-mediated killing (51Cr release) of C1R/env cells expressing SIV env; assay type: cell-based, human; conditions: for Effect on CTL-mediated cell killing / lysis (in words): C1R/env cells; for Percent Specific Lysis: ClR/env target cells, compound 1.0 nM added at beginning of 5 hour assay, 51Cr release
[6] = target: GAPDH (Homo sapiens, UniProt P04406); assay type: biochemical; conditions: gel filtration of GAPDH incubated with DMD
Sequence of GAPDH (P04406 whole entry, species assumed): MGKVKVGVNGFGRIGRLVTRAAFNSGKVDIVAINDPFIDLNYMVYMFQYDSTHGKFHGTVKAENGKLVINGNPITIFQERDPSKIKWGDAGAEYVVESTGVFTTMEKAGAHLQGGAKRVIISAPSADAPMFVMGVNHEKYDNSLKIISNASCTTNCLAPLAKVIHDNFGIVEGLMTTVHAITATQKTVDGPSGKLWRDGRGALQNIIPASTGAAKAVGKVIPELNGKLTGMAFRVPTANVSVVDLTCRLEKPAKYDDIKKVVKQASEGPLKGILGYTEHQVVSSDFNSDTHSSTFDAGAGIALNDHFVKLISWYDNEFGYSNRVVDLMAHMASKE

| SMILES | Stability depending on pH [1] | Effect on CTL-mediated cell killing / lysis (in words) [2] | Percent Specific Lysis [2] | Percent Specific Lysis [3] | Effect on CTL-mediated cell killing / lysis (in words) [4] | Percent Specific Lysis [4] | Effect on CTL-mediated cell killing / lysis (in words) [5] | Percent Specific Lysis [5] | Effect on association of GAPDH monomers (tetrameric vs dimeric form) [6] | Effect on CTL-mediated cell killing / lysis (in words) ([3]; huBLCL/env cells) |
| --- | --- | --- | --- | --- | --- | --- | --- | --- | --- | --- |
| C#CCN(C)C(C)Cc1ccccc1 (stereo not drawn) [deprenyl, N,α-dimethyl-N-2-propynylphenethylamine] | more stable at a pH in the range of about 3-5 than at a pH of about 7 | – | – | – | – | – | – | – | – | – |
| CC(=O)N[C@@H](CS)C(=O)O [NAC, N-acetyl cysteine] | – | effective in reducing lysis | 30.74% | 13.41% | effective in reducing lysis | 6.32% | effective in reducing lysis | 29.12% | – | – |
| C#CCNC(C)Cc1ccccc1 (single isomer, unassigned; (-)) [Desm., (−)-desmethyldeprenyl] | – | reduced cell killing in all four cell lines | 30.65% | −1.85% | reduced cell killing in all four cell lines | 4.34% | reduced cell killing in all four cell lines | 6.98% | inducing the conversion of GAPDH from the tetrameric form to the dimeric form | reduced cell killing in all four cell lines |
